These cell lines were tested with CC(C)C[C@@H](C(=O)N[C@H](C(=O)OC1CCCC1)c1ccccc1)[C@H](O)C(=O)NO [Tosedostat] + COc1cccc2cc(-c3nc([C@H]4CC[C@H](C(=O)O)CC4)n4ncnc(N)c34)[nH]c12 [OSI-027] (partner 0.5 µM) (assay: relative viability (nuclei count vs DMSO), 5 days (fraction); higher = more cells survive). Conditions: first compound 0.02 µM.
Outline: (§1)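 After 5 days of treatment, lung cancer cells in 1536-well plates were fixed and stained in a single step (final 0.05% Triton X-100, 1% formaldehyde, 1 ug/ml Hoechst) and their nuclei counted on 4× images. Treatment had been applied by pin tool the day after seeding as one drug alone or as a fixed anchor-drug dose with five library-drug doses (not always all listed) in √10 steps. Relative viability is the nuclei count of treated wells divided by that of vehicle wells, and values are medians of duplicate plates.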

Cell Line | relative viability
NCI-H1793 | 0.264
EKVX | 0.718
LC-2-ad | 1.03
NCI-H1666 | 0.839
NCI-H1944 | 0.424
NCI-H2085 | 0.555
NCI-H1650 | 0.606
ABC-1 | 0.588
NCI-H358 | 0.925
PC-3 [JPC-3] | 0.693
LOU-NH91 | 0.735

Same assay, conditions: first compound 0.06325 µM

Cell Line | relative viability
NCI-H322M | 0.571
NCI-H1437 | 0.969
PC-14 | 0.818
CAL-12T | 0.769
NCI-H1734 | 0.669
EPLC-272H | 0.265
NCI-H3122 | 0.985
NCI-H2009 | 0.605
NCI-H520 | 0.285
NCI-H1651 | 0.801
NCI-H1993 | 0.476
NCI-H2228 | 0.574
HCC-15 | 0.718
NCI-H1793 | 0.271
EKVX | 0.764
LC-2-ad | 0.756
NCI-H1666 | 0.856
NCI-H1944 | 0.401
NCI-H2085 | 0.797
NCI-H1650 | 0.633
ABC-1 | 0.546
NCI-H358 | 0.745
PC-3 [JPC-3] | 0.828
LOU-NH91 | 0.822

Same assay, conditions: first compound 0.2 µM

Cell Line | relative viability
NCI-H322M | 0.567
NCI-H1437 | 0.846
PC-14 | 0.637
CAL-12T | 0.76
NCI-H1734 | 0.64
EPLC-272H | 0.301
NCI-H3122 | 1.01
NCI-H2009 | 0.498
NCI-H1651 | 0.62
NCI-H1993 | 0.564
NCI-H2228 | 0.571
HCC-15 | 0.579
NCI-H1793 | 0.293
EKVX | 0.673
LC-2-ad | 0.758
NCI-H1666 | 0.822
NCI-H1944 | 0.422
NCI-H2085 | 0.704
NCI-H1650 | 0.662
ABC-1 | 0.423
NCI-H358 | 0.362
PC-3 [JPC-3] | 0.73
LOU-NH91 | 0.703

Same assay, conditions: first compound 0.6325 µM

Cell Line | relative viability
NCI-H322M | 0.556
NCI-H1437 | 0.828
PC-14 | 0.5
CAL-12T | 0.572
NCI-H1734 | 0.571
EPLC-272H | 0.263
NCI-H3122 | 0.963
NCI-H2009 | 0.4
NCI-H520 | 0.335
NCI-H1651 | 0.708
NCI-H1993 | 0.548
NCI-H2228 | 0.387
HCC-15 | 0.467
NCI-H1793 | 0.258
EKVX | 0.696
LC-2-ad | 0.698
NCI-H1666 | 0.835
NCI-H1944 | 0.381
NCI-H2085 | 0.699
NCI-H1650 | 0.639
ABC-1 | 0.391
NCI-H358 | 0.349
PC-3 [JPC-3] | 0.614
LOU-NH91 | 0.676

Same assay, conditions: first compound 2 µM

Cell Line | relative viability
NCI-H322M | 0.509
NCI-H1437 | 0.805
PC-14 | 0.449
CAL-12T | 0.457
NCI-H1734 | 0.564
EPLC-272H | 0.24
NCI-H3122 | 0.588
NCI-H2009 | 0.367
NCI-H520 | 0.22
NCI-H1651 | 0.598
NCI-H1993 | 0.442
NCI-H2228 | 0.363
HCC-15 | 0.46
NCI-H1793 | 0.24
EKVX | 0.748
LC-2-ad | 0.645
NCI-H1666 | 0.845
NCI-H1944 | 0.38
NCI-H2085 | 0.673
NCI-H1650 | 0.706
ABC-1 | 0.406
NCI-H358 | 0.329
PC-3 [JPC-3] | 0.609
LOU-NH91 | 0.616

What follows are cell lines tested with CC(C)C[C@@H](C(=O)N[C@H](C(=O)OC1CCCC1)c1ccccc1)[C@H](O)C(=O)NO [Tosedostat] + N=C(N)NC(=N)NCCc1ccccc1 [Phenformin] (partner 250 µM) in the same assay as above. Conditions: first compound 0.02 µM.
Outline: as §1

Cell Line | relative viability
NCI-H322M | 0.756
NCI-H1437 | 0.28
PC-14 | 0.653
CAL-12T | 0.639
NCI-H1734 | 0.453
EPLC-272H | 0.288
NCI-H3122 | 0.415
NCI-H2009 | 0.562
NCI-H520 | 0.391
NCI-H1651 | 0.324
NCI-H1993 | 0.514
NCI-H2228 | 0.334
HCC-15 | 0.512
NCI-H1793 | 0.252
EKVX | 0.216
LC-2-ad | 0.692
NCI-H1666 | 0.547
NCI-H1944 | 0.21
NCI-H2085 | 0.55
NCI-H1650 | 0.484
ABC-1 | 0.201
NCI-H358 | 0.387
PC-3 [JPC-3] | 0.468
LOU-NH91 | 0.823

Same assay, conditions: first compound 0.06325 µM

Cell Line | relative viability
NCI-H322M | 0.705
NCI-H1437 | 0.28
PC-14 | 0.54
CAL-12T | 0.552
NCI-H1734 | 0.399
EPLC-272H | 0.299
NCI-H3122 | 0.385
NCI-H2009 | 0.477
NCI-H520 | 0.593
NCI-H1651 | 0.328
NCI-H1993 | 0.507
NCI-H2228 | 0.266
HCC-15 | 0.46
NCI-H1793 | 0.321
EKVX | 0.236
LC-2-ad | 0.555
NCI-H1666 | 0.527
NCI-H1944 | 0.194
NCI-H2085 | 0.646
NCI-H1650 | 0.501
ABC-1 | 0.201
NCI-H358 | 0.3
PC-3 [JPC-3] | 0.463
LOU-NH91 | 0.742

Same assay, conditions: first compound 0.2 µM

Cell Line | relative viability
NCI-H322M | 0.72
NCI-H1437 | 0.295
PC-14 | 0.452
CAL-12T | 0.508
NCI-H1734 | 0.393
EPLC-272H | 0.259
NCI-H3122 | 0.362
NCI-H2009 | 0.477
NCI-H520 | 0.585
NCI-H1651 | 0.293
NCI-H1993 | 0.459
NCI-H2228 | 0.291
HCC-15 | 0.432
NCI-H1793 | 0.284
EKVX | 0.228
LC-2-ad | 0.56
NCI-H1666 | 0.554
NCI-H1944 | 0.217
NCI-H2085 | 0.713
NCI-H1650 | 0.399
ABC-1 | 0.247
NCI-H358 | 0.223
PC-3 [JPC-3] | 0.491
LOU-NH91 | 0.691

Same assay, conditions: first compound 0.6325 µM

Cell Line | relative viability
NCI-H322M | 0.704
NCI-H1437 | 0.332
PC-14 | 0.448
CAL-12T | 0.446
NCI-H1734 | 0.372
EPLC-272H | 0.239
NCI-H3122 | 0.368
NCI-H2009 | 0.468
NCI-H520 | 0.712
NCI-H1651 | 0.267
NCI-H1993 | 0.497
NCI-H2228 | 0.244
HCC-15 | 0.348
NCI-H1793 | 0.31
EKVX | 0.202
LC-2-ad | 0.438
NCI-H1666 | 0.612
NCI-H1944 | 0.196
NCI-H2085 | 0.673
NCI-H1650 | 0.399
ABC-1 | 0.23
NCI-H358 | 0.219
PC-3 [JPC-3] | 0.442
LOU-NH91 | 0.677

Same assay, conditions: first compound 2 µM

Cell Line | relative viability
NCI-H322M | 0.708
NCI-H1437 | 0.299
PC-14 | 0.38
CAL-12T | 0.371
NCI-H1734 | 0.345
EPLC-272H | 0.189
NCI-H3122 | 0.292
NCI-H2009 | 0.419
NCI-H520 | 0.782
NCI-H1651 | 0.306
NCI-H1993 | 0.499
NCI-H2228 | 0.175
HCC-15 | 0.32
NCI-H1793 | 0.203
EKVX | 0.192
LC-2-ad | 0.508
NCI-H1666 | 0.567
NCI-H1944 | 0.211
NCI-H2085 | 0.682
NCI-H1650 | 0.281
ABC-1 | 0.206
NCI-H358 | 0.238
PC-3 [JPC-3] | 0.408
LOU-NH91 | 0.481
